From patent publication US11835532B2, “Green concentrated reagent for hemotology systems” (priority 2018, dated 2023)

Assay: Response of test reagent pools to osmolality, conductivity and pH adjusters
Format: physicochemical
Settings: osmolality and conductivity adjuster added to working concentration reagent
Description: Assays were performed to characterize the response of the test reagents according to Table 2 to adjustments targeting changes to the pH, osmolality and conductivity of the reagent test pools.
Each of the test pools were adjusted for osmolality and conductivity with different chemicals, for example, sodium chloride, sodium sulfate, potassium sulfate, potassium bisulfate, imidazole and sodium phosphate monobasic. Adjusting for osmolality or conductivity parameters impacts all three parameters of pH, conductivity and osmolality.
Variation of pH, conductivity and osmolality was observed by adding increasing amounts of each adjuster to a test reagent pool. Amounts of each adjuster to achieve target midpoint were established. The target pH, osmolality and conductivity were pH 7.02-7.20, target osmolality 315-360 mOsm/Kg, and target conductivity 19.05-20.00 mS/cm.
All pH, conductivity and osmolality adjusters functioned as expected with no precipitation.

▴ Conductivity | ▴ Osmolality | ▴ pH/gm | SMILES
+0.88 mS/cm/gm | +14.1 mOsm/kg/gm | +0.01 | O=S(=O)([O-])[O-].[Na+].[Na+] [Sodium Sulfate]
+1.07 mS/cm/gm | +11.9 mOsm/kg/gm | +0.02 | O=S(=O)([O-])[O-].[K+].[K+] [Potassium Sulfate]
+1.61 mS/cm/gm | +29.2 mOsm/kg/gm | 0.00 | [Cl-].[Na+] [Sodium Chloride]

Same assay, conditions: pH adjuster added to working concentration reagent

SMILES | Osmolality change per gram of adjuster | ▴ Conductivity | ▴ pH/gm
Cl [6N Hydrochloric Acid] | +7.0 mOsm/kg/gm | +0.33 mS/cm/gm | −0.16
c1c[nH]cn1 [Imidazole] | +24.9 mOsm/kg/gm | +0.28 mS/cm/gm | +0.21

The remaining lines, values ahead:

Osmolality change per gram of adjuster | ▴ Conductivity | ▴ pH/gm | SMILES
+12.0 mOsm/kg/gm | +0.46 mS/cm/gm | −0.14 | O=P([O-])(O)O.[Na+] [Sodium Phosphate Mono]
+13.7 mOsm/kg/gm | +0.38 mS/cm/gm | +0.39 | [Na+].[OH-] [50% Sodium Hydroxide]
